Test results: article PMC5938390, “Tachyplesin Causes Membrane Instability That Kills Multidrug-Resistant Bacteria by Inhibiting the 3-Ketoacyl Carrier Protein Reductase FabG” (Frontiers in Microbiology, 2018)
Positions of bridges follow the written chain, without caps; N, C: chain ends. No end group written: not given here.

What was measured:
[1] = tested on: P. aeruginosa strain 1409; assay: Membrane rupture by propidium iodide staining; type: cell-based, Pseudomonas aeruginosa; conditions: LB medium, 25°C, 1 h, then PI 10 μg/ml 30 min
Description: These studies were carried out as we previously reported with slight modifications and briefly introduced as follows ([Liu et al., 2017]). […] Cytotoxicity in different cell lines was assessed using the Cell Proliferation Kit II (XTT) (Roche), and cytotoxicity in hemocytes was evaluated by the increase in the absorbance at 540 nm after peptide incubation. Membrane rupture was indicated by the entrance of the DNA-binding fluorescent dye PI into MDR clinical isolates of P. aeruginosa strain 1409. Membrane translocation of N-terminal FITC-conjugated tachyplesin III (purity ≥ 95%, synthesized by GL Biochem Co., Ltd, Shanghai, China) into MDR clinical isolates of Acinetobacter baumannii strain 1408 were detected by confocal laser-scanning microscopy.
After centrifugation at 3000 g for 10 min, cells were resuspended in the same volume of PBS (phosphate-buffered saline, 8 g/L NaCl, 0.2 g/L KCl, 1.44 g/L Na2HPO4, 0.24 g/L KH2PO4, pH 7.4). Then, PI was added to a final concentration of 10 μg/ml. After 30 min of incubation at 25°C, the cells were washed three times with PBS and immediately imaged with a fluorescence microscope.

[2] = tested on: P. aeruginosa 1409; type: cell-based, Pseudomonas aeruginosa; conditions: Pa, Ta 16 μg/ml or Lvf 32 μg/ml, 30 min, 37°C
Description: (§1) The Vitek 32 system (bioMerieux, France) and 16S rDNA sequencing were used to verify the clinical isolates A. baumannii 1408, P. aeruginosa 1409, Klebsiella pneumoniae 5 and E. coli 513, which were grown overnight in Luria-Bertani (LB) medium at 37°C with constant shaking at 220 rpm to reach the middle of their logarithmic growth phase. […] After the addition of 2 volumes of RNAprotect Bacteria Reagent (QIAGEN) to stabilized RNA, samples were vortexed for 5 s, incubated for 5 min at room temperature (15–25°C) and collected by centrifugation at 4°C for 5 min at 4000 g.
(§2) RNA isolation and sequencing were performed by Novogene Bioinformatics Technology Co., Ltd. (Beijing, China) as previously described ([Liu B. et al., 2014]). Clean reads were mapped to the corresponding bacterial genomes using Bowtie 2 software ([Langmead and Salzberg, 2012]). Gene expression was calculated using the FPKM (expected number of fragments per kilobase of transcript sequence per millions of base pairs sequenced) method with HTSeq software (union model) ([Anders et al., 2015]). Differentially expressed genes were selected based on the DESeq R package with Padj values < 0.05 ([Anders and Huber, 2010]). KEGG pathway analysis was performed using KOBAS (2.0), and the corrected p value cut-off was set at 0.05 ([Li et al., 2015]).

[3] = tested on: K. pneumoniae 5; assay: Transcriptome analysis (RNA sequencing, FPKM, DESeq); type: cell-based, Klebsiella pneumoniae; conditions: Kp, Ta 16 μg/ml or Lvf 32 μg/ml, 30 min, 37°C
Description: as §1, §2

[4] = tested on: A. baumannii 1408; assay: as above; type: cell-based, Acinetobacter baumannii; conditions: Ab, Ta 16 μg/ml or Lvf 32 μg/ml, 30 min, 37°C
Description: as §1, §2

[5] = tested on: E. coli 513; assay: as above; type: cell-based, Escherichia coli; conditions: Ec, Ta 16 μg/ml or Lvf 32 μg/ml, 30 min, 37°C
Description: as §1, §2

[6] = tested on: P. aeruginosa 1409; assay: MIC against MDR clinical isolate; type: cell-based, Pseudomonas aeruginosa
[7] = tested on: K. pneumoniae 5; assay: MIC against clinical isolate; type: cell-based, Klebsiella pneumoniae
[8] = tested on: E. coli 513; assay: MIC against clinical isolate; type: cell-based, Escherichia coli
[9] = tested on: A. baumannii 1408; assay: MIC against MDR clinical isolate; type: cell-based, Acinetobacter baumannii
[10] = biological target: T1, 3-ketoacyl carrier protein reductase FabG from E. coli (E. coli, UniProt P0AEK2 1-244); assay: SPR; tachyplesin III amine-coupled to a CM5 chip (approximately 1000 resonance units); FabG (1.25, 2.5, 5, 10 μg/mL) in HBS-N running buffer injected at 20 μl/min for 6 min; Biacore 3000; 1:1 Langmuir binding model; conditions: both partners purified
T1 construct: FabG, 3-ketoacyl-acyl carrier protein reductase, E. coli; cloned into the NcoI and XhoI sites of pET28a; also called 3-ketoacyl-acyl carrier protein reductase; β-ketoacyl-acyl carrier protein (ACP) reductase FabG; source: E. coli BL21 DE3 (pET28a), purified with Ni resin
T1 sequence: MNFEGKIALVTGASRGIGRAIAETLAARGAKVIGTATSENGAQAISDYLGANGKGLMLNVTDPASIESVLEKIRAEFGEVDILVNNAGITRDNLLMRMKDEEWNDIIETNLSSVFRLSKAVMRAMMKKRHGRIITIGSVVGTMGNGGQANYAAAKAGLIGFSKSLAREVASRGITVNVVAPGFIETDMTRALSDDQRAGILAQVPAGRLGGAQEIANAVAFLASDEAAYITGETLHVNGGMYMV

In the case of C[C@H]1COc2c(N3CCN(C)CC3)c(F)cc3c(=O)c(C(=O)O)cn1c23 [levofloxacin], the “membrane integrity (PI fluorescence)” value ([1]; 1/4× MIC) is reported as “did not affect the integrity of bacterial membranes”, the “membrane integrity (PI fluorescence)” value ([1]; 4× MIC (high concentration)) is reported as “some of the bacterial membranes were broken slightly” and the “FPKM of gene PADK2_26395” value ([2]; control 7.76041) is reported as 10.0809. For the same molecule, the “FPKM of gene PADK2_02440” value ([2]; control 10.8663) was 14.499, the “FPKM of gene PADK2_25635” value ([2]; control 48.5098) was 42.4346 and the “FPKM of gene PADK2_02970” value ([2]; control 53.0528) was 66.953. The “FPKM of gene PADK2_25405 (3-ketoacyl-acyl carrier protein reductase)” value ([2]; control 56) was 43, the “FPKM of gene PADK2_17500” value ([2]; control 97.7062) was 119.076 and the “FPKM of gene PADK2_09275 (3-hydroxyacyl-CoA dehydrogenase)” value ([2]; control 361) was 369. For the same molecule, the “readcount of gene Novel00001 in treated sample” value ([2]; differential analysis) was 77.24, the “readcount of gene Novel00002 in treated sample” value ([2]; differential analysis) was 21.4195 and the “readcount of gene Novel00003 in treated sample” value ([2]; differential analysis) was 79.1872. The “readcount of gene Novel00004 in treated sample” value ([2]; differential analysis) was 104.501, the “readcount of gene Novel00005 in treated sample” value ([2]; differential analysis) was 85.0289 and the “FPKM of gene KPNJ2_01473” value ([3]; control 0) was 1.282. For the same molecule, the “FPKM of gene KPNJ2_01064” value ([3]; control 3.68216) was 0, the “FPKM of gene KPNJ2_04725” value ([3]; control 22.8601) was 21.9489 and the “FPKM of gene KPNJ2_03426 (3-ketoacyl-acyl carrier protein reductase)” value ([3]; control 41.4) was 80.6. For the same molecule, the “FPKM of gene KPNJ2_01584 (Enoyl-CoA hydratase)” value ([3]; control 128) was 190, the “FPKM of gene KPNJ2_04200” value ([3]; control 4040.19) was 4507.07 and the “readcount of gene KPNJ2_00001 in treated sample” value ([3]; differential analysis) was 119.391. The “readcount of gene KPNJ2_00002 in treated sample” value ([3]; differential analysis) was 95.8073, the “readcount of gene KPNJ2_00003 in treated sample” value ([3]; differential analysis) was 27.2682 and the “readcount of gene KPNJ2_00004 in treated sample” value ([3]; differential analysis) was 368.489. The “readcount of gene KPNJ2_00005 in treated sample” value ([3]; differential analysis) was 375.122, the “FPKM of gene A1S_1815” value ([4]; control 0) was 0 and the “FPKM of gene Novel00132” value ([4]; control 18.2658) was 8.387. For the same molecule, the “FPKM of gene A1S_0707” value ([4]; control 51.3724) was 62.4914, the “FPKM of gene A1S_2182” value ([4]; control 136.449) was 191.991 and the “FPKM of gene A1S_2061 (3-ketoacyl-acyl carrier protein reductase)” value ([4]; control 323) was 328. The “FPKM of gene A1S_1368” value ([4]; control 2030.48) was 1961.71, the “readcount of gene A1S_0001 in treated sample” value ([4]; differential analysis) was 246.119 and the “readcount of gene A1S_0002 in treated sample” value ([4]; differential analysis) was 308.109. For the same molecule, the “readcount of gene A1S_0003 in treated sample” value ([4]; differential analysis) was 33.1432, the “readcount of gene A1S_0004 in treated sample” value ([4]; differential analysis) was 622.97 and the “FPKM of gene b1943” value ([5]; control 0) was 0. For the same molecule, the “FPKM of gene b1815” value ([5]; control 22.7313) was 15.6958, the “FPKM of gene b0242” value ([5]; control 40.7621) was 43.1933 and the “FPKM of gene b2495” value ([5]; control 62.5019) was 46.4771. For the same molecule, the “FPKM of gene b4004” value ([5]; control 64.6122) was 63.7219, the “FPKM of gene b3846 (3-hydroxyacyl-CoA dehydrogenase)” value ([5]; control 97) was 94 and the “FPKM of gene b1093 (3-ketoacyl-acyl carrier protein reductase)” value ([5]; control 633) was 627. The “readcount of gene b0001 in treated sample” value ([5]; differential analysis) was 28.7713, the “readcount of gene b0002 in treated sample” value ([5]; differential analysis) was 277.558 and the “readcount of gene b0003 in treated sample” value ([5]; differential analysis) was 192.091. For the same molecule, the “readcount of gene b0004 in treated sample” value ([5]; differential analysis) was 222.554, the “readcount of gene b0005 in treated sample” value ([5]; differential analysis) was 14.3856 and the “32 μg/ml levofloxacin expressed as multiple of MIC” value (“32 μg/ml levofloxacin expressed” below) ([6]; P. aeruginosa 1409) was 2 × MIC. For the same molecule, the “1/4× MIC” value ([6]; P. aeruginosa strain 1409) was 4 µg/mL, the “4× MIC” value ([6]; P. aeruginosa strain 1409) was 64 µg/mL and the “32 μg/ml levofloxacin expressed” value [7] was 2 × MIC. For the same molecule, the “32 μg/ml levofloxacin expressed” value [8] was 1 × MIC and the “32 μg/ml levofloxacin expressed” value [9] was 1 × MIC.

B1: tachyplesin III (peptide)
peptide: KWCFRVCYRGICYRKCR
modifications: disulfide 7-12, 3-16; ends not checked
notes: tachyplesin III, cationic beta-hairpin antimicrobial peptide from horseshoe crab hemocytes; 17 residues; Coupled to the CM5 chip through amines in the SPR; source: synthetic peptide (purity ≥ 95%, synthesized by GL Biochem Co., Ltd, Shanghai, China)
B1: binds [10].
